Laboratory results published in US20260034094A1, “COMPOSITIONS AND METHODS FOR INDUCING FERROPTOSIS” (Kojin Therapeutics, Inc., priority 2022, published 2026).

Key:
[1] = molecular target: human recombinant GCL (Homo sapiens (Human), UniProt P48506); experiment: GCL enzyme profiling assay (ADP-Glo luminescence); assay type: biochemical; conditions: human recombinant GCL, ADP-Glo; read-out: GCL IC50
Summary of the method: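 ADP-Glo luminescence readout; 5 nM enzyme preincubated 1 h at 22 °C with 0.6 mM ATP, then started with 1 mM glutamate and 1.2 mM α-aminobutyrate, stopped after 2 h. Buffer: HEPES pH 7.5, MgCl2, DTT, BSA, 0.2% F-127, 1% DMSO. IC50 from four-parameter logistic fit.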

[2] = test system: RKN cells; experiment: RKN cell profiling assay (cell viability, CellTiter-Glo); assay type: cell-based; conditions: cell viability, read-out: Cell Killing EC50
Summary of the method: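 Cells seeded at 1,000/well in F-12 with 10% FBS, left to adhere 24 h, then compound-treated for 96 h at 0.5% final DMSO. Viability by CellTiter-Glo luminescence; EC50 from four-parameter logistic fit. Ferroptosis rescue runs included 1.5 μM ferrostatin-1 added at seeding.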

Chain of human recombinant GCL (P48506 whole entry): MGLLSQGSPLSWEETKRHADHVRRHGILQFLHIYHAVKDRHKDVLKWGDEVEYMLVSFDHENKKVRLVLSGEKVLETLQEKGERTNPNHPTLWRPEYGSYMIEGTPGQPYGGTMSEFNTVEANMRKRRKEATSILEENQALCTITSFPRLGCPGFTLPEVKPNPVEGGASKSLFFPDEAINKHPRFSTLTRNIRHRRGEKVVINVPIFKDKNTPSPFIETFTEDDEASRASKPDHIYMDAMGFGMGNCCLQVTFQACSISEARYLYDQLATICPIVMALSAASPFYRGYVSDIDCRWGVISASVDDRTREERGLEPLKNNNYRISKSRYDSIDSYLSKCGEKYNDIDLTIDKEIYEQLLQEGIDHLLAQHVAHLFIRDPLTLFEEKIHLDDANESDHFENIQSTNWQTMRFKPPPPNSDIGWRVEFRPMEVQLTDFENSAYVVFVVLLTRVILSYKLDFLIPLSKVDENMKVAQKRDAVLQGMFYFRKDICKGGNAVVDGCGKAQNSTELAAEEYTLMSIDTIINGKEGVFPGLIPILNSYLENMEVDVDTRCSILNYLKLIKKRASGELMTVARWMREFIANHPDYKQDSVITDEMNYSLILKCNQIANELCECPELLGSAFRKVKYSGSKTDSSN

| SMILES | IC50 [1] [µM] | EC50 [2] [µM] |
| --- | --- | --- |
| N[C@@H](CCS(=O)(=O)CCC(O)(c1ccon1)C(F)(F)F)C(=O)O (some centres unmarked) [Compound 369] | 20 to 2000 | ≥ 1000 |
| N=S(=O)(CC[C@H](N)C(=O)O)CCC(O)(c1ccsn1)C(F)(F)F (some centres unmarked) [Compound 370] | ≤ 20 | < 1000 |
| N[C@@H](CCS(=O)(=O)CCC(O)(c1ccsn1)C(F)(F)F)C(=O)O (some centres unmarked) [Compound 371] | ≤ 20 | < 1000 |
| N=S(=O)(CC[C@H](N)C(=O)O)CCC(O)(c1ccc(Oc2ccccc2)cn1)C(F)(F)F (some centres unmarked) [Compound 372] | ≤ 20 | < 1000 |
| N=S(=O)(CC[C@H](N)C(=O)O)CCC(O)(c1ncc2ccccc2n1)C(F)(F)F (some centres unmarked) [Compound 374] | 20 to 2000 | < 1000 |
| N=S(=O)(CC[C@H](N)C(=O)O)CCC(O)(c1nsc2ccccc12)C(F)(F)F (some centres unmarked) [Compound 375] | ≤ 20 | < 1000 |
| N=S(=O)(CC[C@H](N)C(=O)O)CCC(O)(c1cc(-c2ccccc2)sn1)C(F)(F)F (some centres unmarked) [Compound 376] | ≤ 20 | < 1000 |
| N[C@@H](CCS(=O)(=O)CCC(O)(c1cc(-c2ccccc2)sn1)C(F)(F)F)C(=O)O (some centres unmarked) [Compound 377] | ≤ 20 | ≥ 1000 |
| N=S(=O)(CC[C@H](N)C(=O)O)CCC(O)(c1cc(-c2ccccc2)on1)C(F)(F)F (some centres unmarked) [Compound 378] | ≤ 20 | < 1000 |
| N=S(=O)(CC[C@H](N)C(=O)O)CCC(O)(C1CCN(c2ccc(Cl)cc2Cl)CC1)C(F)(F)F (some centres unmarked) [Compound 379] | ≤ 20 | < 1000 |
| N=S(=O)(CC[C@H](N)C(=O)O)CCC(O)(c1ccc(Oc2ccc(Cl)cc2Cl)cn1)C(F)(F)F (some centres unmarked) [Compound 380] | ≤ 20 | < 1000 |
| N=S(=O)(CCC(C1CCCCC1)C(F)(F)F)CC[C@H](N)C(=O)O (stereo partly drawn) [Compound 381, (2S)-2-amino-4-(3-cyclohexyl-4,4,4-trifluorobutylsulfonimidoyl)butanoic acid] | ≤ 20 | ≥ 1000 |
| N=S(=O)(CCC(C1CCCC1)C(F)(F)F)CC[C@H](N)C(=O)O (some centres unmarked) [Compound 382] | ≤ 20 | ≥ 1000 |
| N=S(=O)(CCC(C1CCC1)C(F)(F)F)CC[C@H](N)C(=O)O (some centres unmarked) [Compound 383] | ≤ 20 | ≥ 1000 |
| N=S(=O)(CCC(C(F)(F)F)C12CC(C1)C2)CC[C@H](N)C(=O)O (some centres unmarked) [Compound 384] | ≤ 20 | ≥ 1000 |
| N=S(=O)(CC[C@H](N)C(=O)O)CCC1(c2cccc(F)c2)CCC1 (stereo partly drawn) [Compound 385, (2S)-2-amino-4-[2-[1-(3-fluorophenyl)cyclobutyl]ethylsulfonimidoyl]butanoic acid] | 20 to 2000 | < 1000 |
| N=S(=O)(CCC(c1ccc2[nH]ncc2c1)C(F)(F)F)CC[C@H](N)C(=O)O (stereo partly drawn) [Compound 386, (2S)-2-amino-4-(4,4,4-trifluoro-3-(1H-indazol-5-yl)butylsulfonimidoyl)butanoic acid] | ≤ 20 | < 1000 |
| N=S(=O)(CC[C@H](N)C(=O)O)CCC1(c2ccccn2)CCC1 (stereo partly drawn) [Compound 387, (2S)-2-amino-4-(2-(1-(pyridin-2-yl)cyclobutyl)ethylsulfonimidoyl)butanoic acid] | 20 to 2000 | < 1000 |
| N=S(=O)(CCC(c1ccc(-c2ccccc2)cc1O)C(F)(F)F)CC[C@H](N)C(=O)O (stereo partly drawn) [Compound 391, (2S)-2-amino-4-(4,4,4-trifluoro-3-(3-hydroxy-[1,1′-biphenyl]-4-yl)butylsulfonimidoyl)butanoic acid] | ≤ 20 | < 1000 |
| N=S(=O)(CC[C@H](N)C(=O)O)CCC1(c2ccc3[nH]ncc3c2)CCC1 (some centres unmarked) [Compound 394] | ≤ 20 | ≥ 1000 |
| N=S(=O)(CC[C@H](N)C(=O)O)CCC1(c2ccc3[nH]nnc3c2)CCC1 (some centres unmarked) [Compound 395] | 20 to 2000 | < 1000 |
| N=S(=O)(CC[C@H](N)C(=O)O)CCC1(c2ccc3[nH]cnc3c2)CCC1 (some centres unmarked) [Compound 396] | 20 to 2000 | ≥ 1000 |
| COc1ccccc1C(CCS(=N)(=O)CC[C@H](N)C(=O)O)C(F)(F)F (some centres unmarked) [Compound 398] | ≤ 20 | < 1000 |

| SMILES | IC50 [1] [µM] | EC50 [2] [µM] |
| --- | --- | --- |
| COc1ccc(-c2ccc(C3(CCS(=N)(=O)CC[C@H](N)C(=O)O)CCC3)cc2)c(Cl)c1 (some centres unmarked) [Compound 400] | ≤ 20 | < 1000 |
| N=S(=O)(CC[C@H](N)C(=O)O)CCC1(c2ccc(-c3ccc(O)cc3Cl)cc2)CCC1 (some centres unmarked) [Compound 401] | ≤ 20 | ≥ 1000 |
| N=S(=O)(CC[C@H](N)C(=O)O)CCC1(c2ccc(-c3ccc(Cl)cc3Cl)cc2)CCC1 (some centres unmarked) [Compound 402] | ≤ 20 | < 1000 |
| N=S(=O)(CCC(n1nccn1)C(F)(F)F)CC[C@H](N)C(=O)O (stereo partly drawn) [Compound 404, (2S)-2-amino-4-[[4,4,4-trifluoro-3-(triazol-2-yl)butyl]sulfonimidoyl]butanoic acid] | 20 to 2000 | < 1000 |
| N=S(=O)(CC[C@H](N)C(=O)O)CCC1(n2nccn2)CCC1 (stereo partly drawn) [Compound 405, (2S)-4-(2-(1-(2H-1,2,3-triazol-2-yl)cyclobutyl)ethylsulfonimidoyl)-2-aminobutanoic acid] | 20 to 2000 | < 1000 |
| Cc1cnn(C(CCS(=N)(=O)CC[C@H](N)C(=O)O)C(F)(F)F)n1 (some centres unmarked) [Compound 406] | ≤ 20 | < 1000 |
| N=S(=O)(CCC(n1ncc(-c2ccccn2)n1)C(F)(F)F)CC[C@H](N)C(=O)O (some centres unmarked) [Compound 407] | ≤ 20 | ≥ 1000 |
| N=S(=O)(CCC(n1ncc(-c2cccnc2)n1)C(F)(F)F)CC[C@H](N)C(=O)O (some centres unmarked) [Compound 408] | ≤ 20 | ≥ 1000 |
| N=S(=O)(CCC(n1ncc(-c2ccccc2)n1)C(F)(F)F)CC[C@H](N)C(=O)O (some centres unmarked) [Compound 409] | ≤ 20 | < 1000 |
| N=S(=O)(CCC(n1nc2ccccc2n1)C(F)(F)F)CC[C@H](N)C(=O)O (some centres unmarked) [Compound 410] | ≤ 20 | ≥ 1000 |
| N=S(=O)(CCC(n1cccn1)C(F)(F)F)CC[C@H](N)C(=O)O (some centres unmarked) [Compound 411] | 20 to 2000 | < 1000 |
| Cc1ccn(C(CCS(=N)(=O)CC[C@H](N)C(=O)O)C(F)(F)F)n1 (some centres unmarked) [Compound 412] | 20 to 2000 | ≥ 1000 |
| N=S(=O)(CCC(n1ccc(C2CC2)n1)C(F)(F)F)CC[C@H](N)C(=O)O (some centres unmarked) [Compound 413] | 20 to 2000 | ≥ 1000 |
| N=S(=O)(CCC(n1ccc(-c2cccnc2)n1)C(F)(F)F)CC[C@H](N)C(=O)O (some centres unmarked) [Compound 414] | 20 to 2000 | ≥ 1000 |
| N=S(=O)(CCC(n1ccc(-c2ccccn2)n1)C(F)(F)F)CC[C@H](N)C(=O)O (some centres unmarked) [Compound 415] | 20 to 2000 | ≥ 1000 |
| N=S(=O)(CCC(n1ccc(-c2ccccc2)n1)C(F)(F)F)CC[C@H](N)C(=O)O (some centres unmarked) [Compound 416] | ≤ 20 | ≥ 1000 |
| Cc1cnn(C2(CCS(=N)(=O)CC[C@H](N)C(=O)O)CCC2)n1 (some centres unmarked) [Compound 417] | 20 to 2000 | < 1000 |
| N=S(=O)(CC[C@H](N)C(=O)O)CCC1(n2ncc(-c3ccccn3)n2)CCC1 (some centres unmarked) [Compound 418] | 20 to 2000 | ≥ 1000 |
| N=S(=O)(CC[C@H](N)C(=O)O)CCC1(n2ncc(-c3cccnc3)n2)CCC1 (some centres unmarked) [Compound 419] | 20 to 2000 | ≥ 1000 |
| N=S(=O)(CC[C@H](N)C(=O)O)CCC1(n2ncc(-c3ccccc3)n2)CCC1 (some centres unmarked) [Compound 420] | ≤ 20 | ≥ 1000 |
| N=S(=O)(CC[C@H](N)C(=O)O)CCC1(n2nc3ccccc3n2)CCC1 (some centres unmarked) [Compound 421] | ≤ 20 | ≥ 1000 |
| N=S(=O)(CC[C@H](N)C(=O)O)CCC(O)(c1ccc(-c2ccccc2)cc1)C(F)(F)F (stereo partly drawn) [Compound 424, (2S)-4-(3-([1,1′-biphenyl]-4-yl)-4,4,4-trifluoro-3-hydroxybutylsulfonimidoyl)-2-aminobutanoic acid] | ≤ 20 | < 1000 |
| N=S(=O)(CC[C@H](N)C(=O)O)CCC(O)(c1ccc(-c2ccc3ccc(=O)oc3c2)cc1)C(F)(F)F (stereo partly drawn) [Compound 425, (2S)-2-amino-4-(4,4,4-trifluoro-3-hydroxy-3-(4-(2-oxo-2H-chromen-7-yl)phenyl)butylsulfonimidoyl)butanoic acid] | ≤ 20 | ≥ 1000 |
